Like-named read-outs stand apart in the source and are kept apart here. Each block holds one compound with its values, some of them ahead of it.
What was measured:
EMT6Ar1.0 tumors = conditions: murine tumor model; cited from earlier work
[1] = test system: P-glycoprotein (Pgp) at the blood-brain barrier; conditions: Mdr1a/b(-/-) mice; cited from earlier work
[2] = biological target: P-glycoprotein (Pgp) at the blood-brain barrier (Mus musculus, UniProt P21447); conditions: FVB wild-type mice; cited from earlier work
P-glycoprotein (Pgp) = P-glycoprotein (Pgp) (Homo sapiens, UniProt P08183); test: Rhodamine 123 efflux inhibition assay in CCRFvcr1000 cells; type: cell-based
Sequence of P-glycoprotein (Pgp) (P08183 whole entry): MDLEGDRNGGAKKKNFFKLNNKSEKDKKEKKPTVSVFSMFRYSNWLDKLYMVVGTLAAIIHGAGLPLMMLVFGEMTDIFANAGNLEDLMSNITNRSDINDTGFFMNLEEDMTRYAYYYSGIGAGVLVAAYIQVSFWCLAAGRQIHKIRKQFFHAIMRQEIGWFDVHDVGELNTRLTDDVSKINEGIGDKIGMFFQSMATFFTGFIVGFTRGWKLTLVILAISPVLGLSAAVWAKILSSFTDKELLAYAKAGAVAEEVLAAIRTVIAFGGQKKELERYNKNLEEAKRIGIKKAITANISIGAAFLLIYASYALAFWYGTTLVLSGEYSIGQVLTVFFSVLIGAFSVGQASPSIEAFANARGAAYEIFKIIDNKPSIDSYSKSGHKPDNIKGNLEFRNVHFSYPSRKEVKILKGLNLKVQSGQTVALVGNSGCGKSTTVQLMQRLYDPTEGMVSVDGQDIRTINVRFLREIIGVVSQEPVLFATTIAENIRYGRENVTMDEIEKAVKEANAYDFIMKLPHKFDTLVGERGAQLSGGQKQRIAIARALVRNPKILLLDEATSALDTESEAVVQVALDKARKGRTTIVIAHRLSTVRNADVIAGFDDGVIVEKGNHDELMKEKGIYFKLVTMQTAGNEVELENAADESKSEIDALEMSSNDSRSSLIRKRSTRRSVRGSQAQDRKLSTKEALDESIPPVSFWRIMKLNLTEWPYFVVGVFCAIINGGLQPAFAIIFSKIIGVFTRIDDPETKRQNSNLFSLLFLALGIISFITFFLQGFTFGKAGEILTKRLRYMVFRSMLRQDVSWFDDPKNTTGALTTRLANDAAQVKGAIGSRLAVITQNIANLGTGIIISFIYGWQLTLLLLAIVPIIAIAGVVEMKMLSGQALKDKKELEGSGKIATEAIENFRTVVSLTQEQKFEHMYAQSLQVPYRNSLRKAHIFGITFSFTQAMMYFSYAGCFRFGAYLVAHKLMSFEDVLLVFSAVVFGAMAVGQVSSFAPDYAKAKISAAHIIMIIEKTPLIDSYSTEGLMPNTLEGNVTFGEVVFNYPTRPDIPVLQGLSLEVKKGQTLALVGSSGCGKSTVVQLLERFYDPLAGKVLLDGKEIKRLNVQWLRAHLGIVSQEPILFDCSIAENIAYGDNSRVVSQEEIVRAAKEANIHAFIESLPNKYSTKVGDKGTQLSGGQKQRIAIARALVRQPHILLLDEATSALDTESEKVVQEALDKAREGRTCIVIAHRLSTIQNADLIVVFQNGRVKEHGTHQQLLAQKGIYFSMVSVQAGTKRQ

Sequence of P-glycoprotein (Pgp) at the blood-brain barrier (Mus musculus, UniProt P21447) (P21447 whole entry): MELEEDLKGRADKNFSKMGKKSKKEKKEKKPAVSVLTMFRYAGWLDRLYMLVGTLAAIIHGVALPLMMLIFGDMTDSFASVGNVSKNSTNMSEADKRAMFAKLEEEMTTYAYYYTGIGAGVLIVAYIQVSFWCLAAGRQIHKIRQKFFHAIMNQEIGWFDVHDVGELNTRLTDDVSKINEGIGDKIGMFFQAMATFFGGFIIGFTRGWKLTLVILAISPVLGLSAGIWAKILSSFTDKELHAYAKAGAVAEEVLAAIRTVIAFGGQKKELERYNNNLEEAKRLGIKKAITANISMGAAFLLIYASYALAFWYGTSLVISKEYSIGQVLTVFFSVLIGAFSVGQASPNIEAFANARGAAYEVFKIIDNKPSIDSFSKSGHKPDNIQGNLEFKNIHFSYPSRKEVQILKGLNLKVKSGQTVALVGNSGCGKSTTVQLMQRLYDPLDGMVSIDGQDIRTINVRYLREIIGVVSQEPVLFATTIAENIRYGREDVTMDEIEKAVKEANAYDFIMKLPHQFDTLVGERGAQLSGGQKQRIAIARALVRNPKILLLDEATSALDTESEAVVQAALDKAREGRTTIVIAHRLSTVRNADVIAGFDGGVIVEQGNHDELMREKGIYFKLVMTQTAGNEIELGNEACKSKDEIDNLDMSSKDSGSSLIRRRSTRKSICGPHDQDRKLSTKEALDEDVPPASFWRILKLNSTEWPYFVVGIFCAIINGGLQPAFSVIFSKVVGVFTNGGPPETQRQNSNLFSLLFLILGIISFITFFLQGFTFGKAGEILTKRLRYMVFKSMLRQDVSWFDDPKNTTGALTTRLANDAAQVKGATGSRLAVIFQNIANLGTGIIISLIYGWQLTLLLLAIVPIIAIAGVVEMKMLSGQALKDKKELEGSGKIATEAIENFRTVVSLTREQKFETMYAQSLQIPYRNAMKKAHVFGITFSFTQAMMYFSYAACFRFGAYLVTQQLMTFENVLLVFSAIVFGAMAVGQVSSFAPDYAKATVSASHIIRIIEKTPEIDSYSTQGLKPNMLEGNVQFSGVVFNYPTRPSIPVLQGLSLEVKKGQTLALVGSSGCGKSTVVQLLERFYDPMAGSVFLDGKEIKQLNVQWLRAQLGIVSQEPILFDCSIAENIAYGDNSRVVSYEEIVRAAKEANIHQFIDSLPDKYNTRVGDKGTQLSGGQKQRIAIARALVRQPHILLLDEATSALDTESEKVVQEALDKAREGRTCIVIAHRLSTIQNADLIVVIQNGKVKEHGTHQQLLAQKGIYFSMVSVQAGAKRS

Structure (SMILES): COc1cc2c(cc1OC)CN(CCc1ccc(NC(=O)c3cc(OC)c(OC)cc3NC(=O)c3cnc4ccccc4c3)cc1)CC2 [[^11C]tariquidar]
higher AUC0-60 in EMT6Ar1.0 than in EMT6 tumors (EMT6Ar1.0 tumors): approximately 60%
mean brain AUC0-60 [1]: 17 ± 2 min
mean brain AUC0-60 [2]: 9 ± 1 min

IC50 (P-glycoprotein (Pgp)): 8.5 ± 2.5 nM
Structure (SMILES): COc1cc2c(cc1OC)CN(CCc1ccc(NC(=O)c3cc(OC)c(OC)cc3NC(=O)c3cnc4ccccc4c3)cc1)CC2 [tariquidar]

IC50 (P-glycoprotein (Pgp); read-out: IC50 for inhibition of Pgp-mediated rhodamine 123 efflux, CCRFvcr1000 cells, mean±SD, at least 3 independent experiments in duplicate): 375 ± 60 nM
Structure (SMILES): COc1ccc(-c2ccc(CN3CCc4cc(OC)c(OC)cc4C3)cc2)cc1 [MC113]
